Consider 26 molecules from patent US20120083501A1, “COMPOUNDS FOR TREATING NEURODEGENERATIVE DISEASES” (priority 2010, published 2012).

In this test the target is T1, BACE1 (Homo sapiens, UniProt P56817).
T1 construct: endogenous in cells; host or cells: HEK-293 cells stably transfected with wild type APP695
T1 sequence (P56817 46-501): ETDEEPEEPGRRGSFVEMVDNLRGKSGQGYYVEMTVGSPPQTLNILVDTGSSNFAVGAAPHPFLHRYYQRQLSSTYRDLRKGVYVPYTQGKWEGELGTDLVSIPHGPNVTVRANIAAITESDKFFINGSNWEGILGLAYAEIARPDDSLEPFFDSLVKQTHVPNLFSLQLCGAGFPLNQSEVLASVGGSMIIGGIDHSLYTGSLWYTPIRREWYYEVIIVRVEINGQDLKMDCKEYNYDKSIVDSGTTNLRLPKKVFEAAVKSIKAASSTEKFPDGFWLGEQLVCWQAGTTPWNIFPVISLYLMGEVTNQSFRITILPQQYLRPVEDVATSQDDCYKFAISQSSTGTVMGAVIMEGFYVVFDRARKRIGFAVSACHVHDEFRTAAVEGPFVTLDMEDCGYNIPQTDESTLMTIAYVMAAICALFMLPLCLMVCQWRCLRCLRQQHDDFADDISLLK
The test is described as follows: Cellular BACE1 Inhibition Assay (in vitro cellular Amyloidβ 1-40 production, HTRF immunoassay). The class given is cell-based. The following applies: inhibition of Amyloidβ 1-40 production; HEK-293 cells stably transfected with wild type APP695; 48 hours incubation; single assay or mean of multiple assays. How it is done: The BACE inhibition properties of the compounds of the invention may be determined by the following in vitro cellular Amyloidβ 1-40 production assay.
Inhibition of Amyloidβ 1-40 production was determined by incubating cells with compound for 48 hours and quantifying the level of Amyloidβ 1-40 using an homogeneous time-resolved fluorescence (“HTRF”) immunoassay.
Materials and Methods: HEK-293 cells stably transfected with a DNA construct containing the coding sequence for the wild type APP695 sequence were grown in Dulbecco's Modified Eagle Medium (“DMEM”) supplemented with 10% fetal bovine serum, penicillin/streptomycin and 150 μg/mL G418. Cells were plated in 96-well plates at 35,000 cells/well and allowed to attach for 8-12 hours. Media was changed to DMEM supplemented with 10% fetal bovine serum, penicillin/streptomycin 15 minutes prior to compound addition. Diluted compounds were then added at a final concentration of 0.5% DMSO. After 48 hours, 4 μL of media from each well was added to a corresponding well of a 384 well plate (Perkin Elmer Cat#6008280) containing the HTRF reagents. HTRF reagents were obtained from the CisBio Amyloidβ 1-40 peptide assay kit (Cat# 62B40PEC) and were prepared as follows anti-peptide β (1-40)-Cryptate and anti-peptide β (1-40)-XL655 were stored in 2 plate aliquots at −80° C. Diluent and Reconstitution buffer were stored at 4° C. Aliquots of the two antibodies were diluted 1:100 with Reconstitution buffer, and this mixture was diluted 1:2 with Diluent. 12 μL of the reagent mixture was added to the required wells of the 384 well assay plate. The assay plate was incubated at 4° C. for 17 hours and then analyzed for fluorescence at 665 and 620 nm. The reported IC50 below may be from a single assay or the mean of multiple assays.
In general terms: Time-resolved FRET reads energy transfer from a long-lived donor to a nearby acceptor.
The IC50 is the concentration at which inhibition is half-maximal. High values mean weaker potency in that assay, low ones greater potency in that assay. The molecule `CN1C(=O)C2(N=C1N)c1cc(-c3cccc(Cl)c3)ccc1OC1CC(F)(F)CCC12` (centres unmarked) [Example 35, 2-amino-7′-(3-chlorophenyl)-3′,3′-difluoro-1-methyl-1′,2′,3′,4′,4a′,9a′-hexahydrospiro[imidazole-4,9′-xanthen]-5(1H)-one] registered a half-inhibitory concentration (IC50) of 271 nM.
`CN1C(=O)C2(N=C1N)c1cc(-c3cncc(C(F)(F)F)c3)ccc1OC1CC(O)CCC12` (centres unmarked) [Example 5, 2-amino-3′-hydroxy-1-methyl-7′-(5-(trifluoromethyl)pyridin-3-yl)-1′,2′,3′,4′,4a′,9a′-hexahydrospiro[imidazole-4,9′-xanthen]-5(1H)-one] gave an IC50 of 6.1 nM.
As to `CN1C(=O)C2(N=C1N)c1cc(-c3cccnc3F)ccc1OC1CC(F)(F)CCC12` (centres unmarked) [Example 19, 2-amino-3′,3′-difluoro-7′-(2-fluoropyridin-3-yl)-1-methyl-1′,2′,3′,4′,4a′,9a′-hexahydrospiro[imidazole-4,9′-xanthen]-5(1H)-one], the 50% inhibitory concentration (IC50) worked out at 21.4 nM.
For `CN1C(=O)[C@]2(N=C1N)c1cc(-c3cncc(Cl)c3)ccc1O[C@]1(C)CCCO[C@H]12` (relative stereo) [Example 62, (4S*,4a′R*,10a′S*)-2-amino-8′-(5-chloropyridin-3-yl)-1,4a′-dimethyl-3′,4′,4a′,10a′-tetrahydro-2′H-spiro[imidazole-4,10′-pyrano[3,2-b]chromen]-5(1H)-one], half-maximal inhibition (IC50) was put at 2.3 nM.
The molecule `CN1C(=O)C2(N=C1N)c1cc(-c3cc(F)cc(Cl)c3)ccc1O[C@H]1CCCC[C@H]12` (relative stereo) [Example 32, cis 2-amino-7′-(3-chloro-5-fluorophenyl)-1-methyl-1′,2′,3′,4′,4a′,9a′-hexahydrospiro[imidazole-4,9′-xanthen]-5(1H)-one] registered a half-maximal inhibitory concentration (IC50) of 426 nM.
In turn, `CN1C(=O)[C@]2(N=C1N)c1cc(-c3cccc(C#N)c3)ccc1O[C@]1(C)CCCO[C@H]12` (relative stereo) [Example 63, 3-((4S*,4a′R*,10a′S*)-2-amino-1,4a′-dimethyl-5-oxo-1,3′,4′,4a′,5,10a′-hexahydro-2′H-spiro[imidazole-4,10′-pyrano[3,2-b]chromen]-8′-yl)benzonitrile] returned an IC50 of 4.3 nM.
As for `CN1C(=O)C2(N=C1N)c1cc(-c3cccc(Cl)c3)ccc1OC1CC(O)CCC12` (centres unmarked) [Example 2, 2-amino-7′-(3-chlorophenyl)-3′-hydroxy-1-methyl-1′,2′,3′,4′,4a′,9a′-hexahydrospiro[imidazole-4,9′-xanthen]-5(1H)-one], it took 1.5 nM to reach half-maximal inhibition (IC50).
The molecule `CN1C(=O)C2(N=C1N)c1cc(-c3cc(F)cc(Cl)c3)ccc1OC1CCCC[C@@H]12` (some centres unmarked) [Example 12] gave an IC50 of 11.4 nM.
For `CN1C(=O)[C@]2(N=C1N)c1cc(-c3cccnc3F)ccc1O[C@@]1(C)CCCO[C@H]12` (racemic) [Example 55, (4S*,4a′S*,10a′S*)-2-amino-8′-(2-fluoropyridin-3-yl)-1,4a′-dimethyl-3′,4′,4a′,10a′-tetrahydro-2′H-spiro[imidazole-4,10′-pyrano[3,2-b]chromen]-5 (1H)-one], the midpoint of inhibition, the IC50, lay at 18.3 nM.
Regarding `CN1C(=O)C2(N=C1N)c1cc(-c3cncnc3)ccc1OC1CC(O)CCC12` (centres unmarked) [Example 6, 2-amino-3′-hydroxy-1-methyl-7′-(pyrimidin-5-yl)-1′,2′,3′,4′,4a′,9a′-hexahydrospiro[imidazole-4,9′-xanthen]-5(1H)-one], half-maximal inhibition (IC50) was put at 36.2 nM.
Molecule `CN1C(=O)C2(N=C1N)c1cc(-c3cncc(Cl)c3)ccc1C[C@H]1CCOC[C@@H]12` (stereo partly drawn) [Example 69, (4aS,10aS)-2′-amino-8-(5-chloropyridin-3-yl)-1′-methyl-1,3,4,4a,5,10a-hexahydrospiro[benzo[g]isochromene-10,4′-imidazol]-5′(1′H)-one] returned an IC50 of 0.8 nM.
`CN1C(=O)C2(N=C1N)c1cc(-c3cc(F)cc(Cl)c3)ccc1OC1CC(OCC3CC3)CCC12` (centres unmarked) [Example 29, 2-amino-7′-(3-chloro-5-fluorophenyl)-3′-(cyclopropylmethoxy)-1-methyl-1′,2′,3′,4′,4a′,9a′-hexahydrospiro[imidazole-4,9′-xanthen]-5(1H)-one] returned an IC50 of 554 nM.
Take `CN1C(=O)C2(N=C1N)c1cc(-c3cc(F)cc(Cl)c3)ccc1OC1CC(=O)CCC12` (centres unmarked) [Example 8, 2-amino-7′-(3-chloro-5-fluorophenyl)-1-methyl-1′,4′,4a′,9a′-tetrahydrospiro[imidazole-4,9′-xanthene]-3′,5(1H, 2′H)-dione]: it took 5.5 nM to reach half-maximal inhibition (IC50).
Then `CN1C(=O)C2(N=C1N)c1cc(-c3cc(F)cc(Cl)c3)ccc1OC1CC(O)CCC12` (centres unmarked) [Example 1, 2-amino-7′-(3-chloro-5-fluorophenyl)-3′-hydroxy-1-methyl-1′,2′,3′,4′,4a′,9a′-hexahydro spiro[imidazole-4,9′-xanthen]-5(1H)-one], with 2 nM; and `CN1C(=O)C2(N=C1N)c1cc(-c3cncc(Cl)c3)ccc1O[C@H]1CCCC[C@H]12` (relative stereo) [Example 33, cis 2-amino-7′-(5-chloropyridin-3-yl)-1-methyl-1′,2′,3′,4′,4a′,9a′-hexahydrospiro[imidazole-4,9′-xanthen]-5(1H)-one], with 32.2 nM.
For `CN1C(=O)[C@]2(N=C1N)c1cc(-c3cncc(Cl)c3)ccc1O[C@H]1CCCO[C@@H]12` [Example 78, (4S,4a′S,10a′R)-2-amino-8′-(5-chloropyridin-3-yl)-1-methyl-3′,4′,4a′,10a′-tetrahydro-2′H-spiro[imidazole-4,10′-pyrano[3,2-b]chromen]-5(1H)-one], the IC50 came out at 1.5 nM.
`CN1C(=O)[C@]2(N=C1N)c1cc(-c3cccnc3F)ccc1O[C@H]1CCOCC12F` (stereo partly drawn) [Example 99, (4R,4a′S)-2-amino-10a′-fluoro-8′-(2-fluoropyridin-3-yl)-1-methyl-3′,4′,4a′,10a′-tetrahydro-1′H-spiro[imidazole-4,10′-pyrano[4,3-b]chromen]-5(1H)-one]: the IC50 turned out to be 241 nM.
In turn, `CCOC1CCC2C(C1)Oc1ccc(-c3cc(F)cc(Cl)c3)cc1C21N=C(N)N(C)C1=O` (centres unmarked) [Example 28, 2-amino-7′-(3-chloro-5-fluorophenyl)-3′-ethoxy-1-methyl-l′,2′,3′,4′,4a′,9a′-hexahydrospiro[imidazole-4,9′-xanthen]-5(1H)-one] came in with an IC50 of 51.2 nM.
The molecule `CN1C(=O)C2(N=C1N)c1cc(-c3cncnc3)ccc1OC1CC(F)(F)CCC12` (centres unmarked) [Example 18, 2-amino-3′,3′-difluoro-1-methyl-7′-(pyrimidin-5-yl)-1′,2′,3′,4′,4a′,9a′-hexahydrospiro[imidazole-4,9′-xanthen]-5(1H)-one] gave an IC50 of 125 nM.
Turning to `CN1C(=O)C2(N=C1N)c1cc(-c3cc(F)cc(Cl)c3)ccc1OC1CC3(CCC12)OCCO3` (centres unmarked) [Example 10, 2″-amino-7′-(3-chloro-5-fluorophenyl)-1″-methyl-1″,2′,4′,4′a,5″,9′a-hexahydro-1′H-dispiro[1,3-dioxolane-2,3′-xanthene-9′,4″-imidazole]-5″-one], it took 168 nM to reach half-maximal inhibition (IC50).
Molecule `CN1C(=O)C2(N=C1N)c1cc(-c3cncc(Cl)c3)ccc1OC1CC(O)CCC12` (centres unmarked) [Example 3, 2-amino-7′-(5-chloropyridin-3-yl)-3′-hydroxy-1-methyl-1′,2′,3′,4′,4a′,9a′-hexahydrospiro[imidazole-4,9′-xanthen]-5(1H)-one] had a half-maximal inhibitory concentration (IC50) of 1.3 nM.
Turning to `CN1C(=O)C2(N=C1N)c1cc(-c3cncc(Cl)c3)ccc1O[C@H]1CCCC[C@@H]12` (relative stereo) [Example 15, trans 2-amino-7′-(5-chloropyridin-3-yl)-1-methyl-1′,2′,3′,4′,4a′,9a′-hexahydrospiro[imidazole-4,9′-xanthen]-5(1H)-one], the IC50 came out at 8.6 nM.
To `CN1C(=O)C2(N=C1N)c1cc(-c3cccnc3F)ccc1O[C@H]1CC(O)CC[C@@H]12` (some centres unmarked) [Example 96, (4a′S,9a′R)-2-amino-7′-(2-fluoropyridin-3-yl)-3′-hydroxy-1-methyl-1′,2′,3′,4′,4a′,9a′-hexahydrospiro[imidazole-4,9′-xanthen]-5(1H)-one] belongs 3.9 nM.
`CN1CC[C@@H]2Oc3ccc(-c4cc(F)cc(Cl)c4)cc3C3(N=C(N)N(C)C3=O)[C@@H]2C1` (stereo partly drawn) [Example 34, (4aS,10aS)-2′-amino-8-(3-chloro-5-fluorophenyl)-1′,2-dimethyl-1,2,3,4,4a,10a-hexahydrospiro[chromeno[3,2-c]pyridine-10,4′-imidazol]-5′(1′H)-one]: the 50% inhibitory concentration (IC50) was determined as 1670 nM.
Regarding `CN1C(=O)[C@]2(N=C1N)c1cc(-c3cncc(C#N)c3)ccc1O[C@H]1CCCO[C@@H]12` [Example 79, 5-((4S,4a′S,10a′R)-2-amino-1-methyl-5-oxo-1,3′,4′,4a′,5,10a′-hexahydro-2′H-spiro[imidazole-4,10′-pyrano[3,2-b]chromen]-8′-yl)nicotinonitrile], the IC50 amounted to 4.3 nM.
For the molecule `COC1CC[C@@H]2[C@@H](C1)Oc1ccc(-c3cc(F)cc(Cl)c3)cc1C21N=C(N)N(C)C1=O` (some centres unmarked) [Example 30, (4a′R,9a′S)-2-amino-7′-(3-chloro-5-fluorophenyl)-3′-methoxy-1-methyl-1′,2′,3′,4′,4a′,9a′-hexahydrospiro[imidazole-4,9′-xanthen]-5(1H)-one], the IC50 worked out at 22.3 nM.
